Results on 41 compounds are retold here after ChEMBL document CHEMBL4219173, “2,4-Diamino-8-quinazoline carboxamides as novel, potent inhibitors of the NAD hydrolyzing enzyme CD38: Exploration of the 2-position structure-activity relationships” (Bioorg Med Chem, 2018).

Data set [1] concerns the target T1, ADP-ribosyl cyclase/cyclic ADP-ribose hydrolase 1 (Homo sapiens, UniProt P28907).
T1 sequence (P28907 whole entry): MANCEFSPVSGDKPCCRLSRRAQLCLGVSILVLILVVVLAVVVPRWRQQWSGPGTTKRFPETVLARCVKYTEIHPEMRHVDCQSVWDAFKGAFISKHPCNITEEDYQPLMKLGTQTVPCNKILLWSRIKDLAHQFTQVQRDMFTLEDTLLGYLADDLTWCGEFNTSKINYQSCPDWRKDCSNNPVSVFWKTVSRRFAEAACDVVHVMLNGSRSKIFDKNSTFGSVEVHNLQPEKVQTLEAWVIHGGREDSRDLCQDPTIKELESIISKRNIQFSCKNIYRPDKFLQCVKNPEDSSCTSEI
As to the kind of experiment: Inhibition of recombinant human CD38 extracellular domain expressed in Pichia pastoris using NAD as substrate pretreated for 30 mins followed by substrate addition measured after 15 to 45 mins.

Data set [2] is described as follows: Aqueous solubility of the compound in FaSSIF. The format is physicochemical.
A short description of data set [3]: Lipophilicity, log D of the compound by chromatographic method. The format is physicochemical.
Data set [4] is described as follows: Oral bioavailability in mouse at 30 mg/kg. The format is ADME, organism-based. Particulars: in vivo.
Data set [5] has as its target Voltage-gated inwardly rectifying potassium channel KCNH2 (Homo sapiens, UniProt Q12809). As to the kind of experiment: Inhibition of human ERG.
In another data set the test system is Mus musculus. As to the kind of experiment: Dose normalized AUC in mouse at 30 mg/kg, po. The format is ADME, organism-based. The settings on record: in vivo.
Data set [6] can be described thus: Half life in mouse at 2 mg/kg, iv. The data set is classed as ADME, organism-based. The settings on record: in vivo.
Data set [7] can be described thus: Volume of distribution at steady state in mouse at 2 mg/kg, iv. The data set is classed as ADME, organism-based. The settings on record: in vivo, read-out: Vdss.
Data set [8] can be described thus: Clearance in mouse at 2 mg/kg, iv. Particulars: in vivo. The data set is classed as ADME, organism-based.
Data set [9] is described as follows: Permeability of the compound by PAMPA. Particulars: read-out: permeability. The data set is classed as ADME. On the technique in general: PAMPA measures passive passage across an artificial lipid membrane.
Another data set has as its target Cytochrome P450 3A4 (Homo sapiens, UniProt P08684). Briefly: Inhibition of CYP3A4 (unknown origin). The data set is classed as ADME.

Converted amounts (≈) assume the structure as drawn.

Voltage-gated inwardly rectifying potassium channel KCNH2, sequence (Q12809 whole entry): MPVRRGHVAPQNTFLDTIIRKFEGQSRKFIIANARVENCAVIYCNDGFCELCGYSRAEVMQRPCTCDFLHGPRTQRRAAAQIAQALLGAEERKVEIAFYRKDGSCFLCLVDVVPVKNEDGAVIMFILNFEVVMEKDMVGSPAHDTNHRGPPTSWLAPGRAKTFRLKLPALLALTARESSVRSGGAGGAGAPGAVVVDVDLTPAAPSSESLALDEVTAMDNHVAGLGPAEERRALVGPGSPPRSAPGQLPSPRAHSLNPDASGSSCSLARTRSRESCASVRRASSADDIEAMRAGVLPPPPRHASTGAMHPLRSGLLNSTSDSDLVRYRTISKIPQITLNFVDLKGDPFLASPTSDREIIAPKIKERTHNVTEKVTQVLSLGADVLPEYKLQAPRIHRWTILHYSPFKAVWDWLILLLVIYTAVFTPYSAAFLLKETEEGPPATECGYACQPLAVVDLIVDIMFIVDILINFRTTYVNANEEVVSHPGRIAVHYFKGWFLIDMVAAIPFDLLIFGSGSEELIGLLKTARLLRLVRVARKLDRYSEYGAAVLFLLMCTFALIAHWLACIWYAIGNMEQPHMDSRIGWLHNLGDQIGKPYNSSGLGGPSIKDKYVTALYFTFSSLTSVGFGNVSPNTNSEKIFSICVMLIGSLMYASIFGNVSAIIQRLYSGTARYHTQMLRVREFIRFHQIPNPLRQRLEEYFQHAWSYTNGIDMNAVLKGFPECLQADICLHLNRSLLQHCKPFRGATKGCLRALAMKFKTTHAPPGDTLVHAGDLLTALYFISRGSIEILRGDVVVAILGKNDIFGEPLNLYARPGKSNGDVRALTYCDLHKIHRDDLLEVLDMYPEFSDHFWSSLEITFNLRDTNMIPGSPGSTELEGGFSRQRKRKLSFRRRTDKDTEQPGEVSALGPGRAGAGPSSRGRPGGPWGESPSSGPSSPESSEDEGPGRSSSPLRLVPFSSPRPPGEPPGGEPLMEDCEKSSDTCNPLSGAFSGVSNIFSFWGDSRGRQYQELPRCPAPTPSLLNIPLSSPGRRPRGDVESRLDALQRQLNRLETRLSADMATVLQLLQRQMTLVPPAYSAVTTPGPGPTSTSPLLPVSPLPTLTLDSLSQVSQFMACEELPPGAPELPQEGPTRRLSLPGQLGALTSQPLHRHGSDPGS
Cytochrome P450 3A4, sequence (P08684 whole entry): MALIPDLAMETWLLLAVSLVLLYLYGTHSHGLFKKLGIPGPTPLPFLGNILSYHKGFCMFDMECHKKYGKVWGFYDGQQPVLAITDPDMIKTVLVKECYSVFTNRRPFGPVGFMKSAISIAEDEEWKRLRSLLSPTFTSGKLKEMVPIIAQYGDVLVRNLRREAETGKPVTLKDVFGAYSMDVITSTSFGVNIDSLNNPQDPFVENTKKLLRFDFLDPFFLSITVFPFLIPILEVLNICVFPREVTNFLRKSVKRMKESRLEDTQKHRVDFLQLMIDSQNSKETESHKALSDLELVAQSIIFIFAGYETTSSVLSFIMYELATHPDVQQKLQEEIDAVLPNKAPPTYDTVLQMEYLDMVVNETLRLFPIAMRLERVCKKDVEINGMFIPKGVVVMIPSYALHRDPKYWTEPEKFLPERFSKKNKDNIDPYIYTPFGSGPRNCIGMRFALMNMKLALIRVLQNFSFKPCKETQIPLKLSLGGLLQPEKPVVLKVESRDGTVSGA

In general, IC50 refers to the concentration that gives 50% inhibition. On to `Cc1n[nH]cc1CNc1nc(NCc2c(F)cccc2C(F)(F)F)c2cccc(C(N)=O)c2n1`, for which the half-inhibitory concentration (IC50) in data set [1] is 620 nM. Turning to `C[C@@H]1c2cn[nH]c2CN1C1=NC(NCc2c(F)cccc2C(F)(F)F)c2cccc(C(N)=O)c2N1` (some centres not stated), the IC50 in [1] turned out to be 330 nM.

For `NC(=O)c1cccc2c(NCc3c(F)cccc3C(F)(F)F)cc(NCc3cn[nH]c3)nc12`, the IC50 in [1] was 72 nM. Turning to `Cc1n[nH]c2c1CN(C1=NC(NCc3c(F)cccc3C(F)(F)F)c3cccc(C(N)=O)c3N1)[C@@H]2C` (some centres not stated), the IC50 in data set [1] is 21 nM. As for `C[C@H]1c2cn[nH]c2CN1C1=NC(NCc2c(F)cccc2C(F)(F)F)c2cccc(C(N)=O)c2N1` (some centres not stated), in data set [1], the concentration for half-maximal inhibition (IC50) was 2500 nM. With `NC(=O)c1cccc2c(NCc3c(F)cccc3C(F)(F)F)nc(NCc3ncc[nH]3)nc12`, in data set [1], the IC50 amounted to 6800 nM. `C[C@@H]1c2[nH]nc(N)c2CN1C1=NC(NCc2c(F)cccc2C(F)(F)F)c2cccc(C(N)=O)c2N1` (some centres not stated): the IC50 in data set [1] came to 45 nM.

For `NC(=O)c1cccc2c(NCc3c(F)cccc3C(F)(F)F)nc(NCc3nc[nH]n3)nc12`, the half-maximal inhibitory concentration (IC50) in data set [1] was found to be 4300 nM. Same read-out and setting: next, `NC(=O)c1cccc2c(NCc3c(F)cccc3C(F)(F)F)nc(N3CCc4cn[nH]c4C3)nc12`: 1900 nM.

One may read the solubility as the dissolved amount per volume that the medium holds. Read a high solubility as a readily soluble substance. As for `Cn1ncc2c1CN(C1=NC(NCc3c(F)cccc3C(F)(F)F)c3cccc(C(N)=O)c3N1)C2` (configuration not stated), the solubility in [2] is 2 µg/mL (≈ 4.1 µM). Further, the IC50 in data set [1] is 82 nM. For the compound `Cc1n[nH]c2c1CN(C1=NC(NCc3c(F)cccc3C(F)(F)F)c3cccc(C(N)=O)c3N1)[C@H]2C` (some centres not stated), the half-inhibitory concentration (IC50) in data set [1] was 170 nM. The chromatographic logD is lipophilicity estimated from chromatographic retention. Take `NC(=O)c1cccc2c1NC(N1Cc3c(N)n[nH]c3C13CC3)=NC2NCc1c(F)cccc1C(F)(F)F` (configuration not stated): the IC50 in data set [1] was 4 nM. Besides, the chromatographic logD in [3] worked out at 3.9. Regarding `NC(=O)c1cccc2c(NCc3c(F)cccc3C(F)(F)F)nc(NCc3cnco3)nc12`, the concentration for half-maximal inhibition (IC50) in data set [1] is 3400 nM. For the compound `NC(=O)c1cccc2c(NCc3c(F)cccc3C(F)(F)F)nc(NCc3cn[nH]c3)nc12`, the IC50 in [1] came to 450 nM. Regarding `CC(=O)c1n[nH]c2c1CN(C1=NC(NCc3c(F)cccc3C(F)(F)F)c3cccc(C(N)=O)c3N1)C2` (configuration not stated), in data set [1], the IC50 was found to be 140 nM. The same measure, in the same setting: next, `CC1(C)c2[nH]nc(N)c2CN1C1=NC(NCc2c(F)cccc2C(F)(F)F)c2cccc(C(N)=O)c2N1` (configuration not stated): 20 nM; `NC(=O)c1c(C(F)(F)F)ccc2c(NCc3c(F)cccc3C(F)(F)F)nc(NCc3ncco3)nc12`: 4200 nM. `Cc1cc(NCc2c(F)cccc2C(F)(F)F)c2cccc(C(N)=O)c2n1` returned a chromatographic logD in data set [3] of 5.1. `CC[C@@H]1c2[nH]ncc2CN1C1=NC(NCc2c(F)cccc2C(F)(F)F)c2cccc(C(N)=O)c2N1` (some centres not stated): the IC50 in data set [1] was found to be 71 nM. Same read-out and setting: next, `NC(=O)c1cccc2c(NCc3c(F)cccc3C(F)(F)F)nc(N3CCc4[nH]ncc4C3)nc12`: 630 nM.

In the case of `C[C@H]1c2n[nH]cc2CN1C1=NC(NCc2c(F)cccc2C(F)(F)F)c2cccc(C(N)=O)c2N1` (some centres not stated), the IC50 in [1] stood at 410 nM. Regarding `C[C@H]1c2[nH]nc(N)c2CN1C1=NC(NCc2c(F)cccc2C(F)(F)F)c2cccc(C(N)=O)c2N1` (some centres not stated), the concentration for half-maximal inhibition (IC50) in data set [1] was found to be 310 nM. `C[C@H](O)c1n[nH]c2c1CN(C1=NC(NCc3c(F)cccc3C(F)(F)F)c3cccc(C(N)=O)c3N1)C2` (some centres not stated) gave a solubility in [2] of 12 µg/mL (≈ 23.2 µM). Further, the IC50 in data set [1] was determined as 110 nM.

As to `NC(=O)c1cccc2c(NCc3c(F)cccc3C(F)(F)F)nc(NCc3c[nH]cn3)nc12`, the IC50 in data set [1] worked out at 1600 nM. Same read-out and setting: under `NC(=O)c1cccc2c1NC(N1Cc3c(N)n[nH]c3C13CCCC3)=NC2NCc1c(F)cccc1C(F)(F)F` (configuration not stated) stands 17 nM.

What is called bioavailability is the share of a dose that reaches the circulation, judged against a reference dose that is usually intravenous. A higher bioavailability goes with good availability. Usually half-life stands for how long it takes for the measured level to halve. Read a high half-life as slow decline. As a reminder, the clearance is the volume of plasma or blood freed of the substance per unit of time. Turning to `C[C@@H]1c2n[nH]cc2CN1C1=NC(NCc2c(F)cccc2C(F)(F)F)c2cccc(C(N)=O)c2N1` (some centres not stated), the bioavailability in [4] came out at 69%. Besides, the half-maximal inhibitory concentration (IC50) in [5] is 3160 nM; in data set [1], 51 nM; at Cytochrome P450 3A4, 158 nM. The AUC/dose with Mus musculus was 327 ng·h/mL/(mg/kg). Also, the half-life in data set [6] was 1.4 h. Further, the concentration in solution in data set [2] (solubility) was 34 µg/mL (≈ 69.7 µM). For the same compound, the Vd in data set [7] was 2.7 L/kg. In data set [8], this compound gave a clearance of 37 mL/min/kg. Further, in data set [9], the Papp is 14.7 ×10⁻⁶ cm/s. In the case of `NC(=O)c1cccc2c1NC(N1Cc3[nH]nc(C(F)(F)F)c3C1)=NC2NCc1c(F)cccc1C(F)(F)F` (configuration not stated), the IC50 in data set [1] was determined as 4100 nM. The same measure, in the same setting: under `NC(=O)c1cccc2c1NC(N1Cc3[nH]nc(N)c3C1)=NC2NCc1c(F)cccc1C(F)(F)F` (configuration not stated) stands 110 nM.

On to `CC[C@H]1c2[nH]ncc2CN1C1=NC(NCc2c(F)cccc2C(F)(F)F)c2cccc(C(N)=O)c2N1` (some centres not stated), for which the IC50 in data set [1] came out at 370 nM.

Turning to `CN(Cc1ccn[nH]1)c1nc(NCc2c(F)cccc2C(F)(F)F)c2cccc(C(N)=O)c2n1`, the concentration for half-maximal inhibition (IC50) in data set [1] was 1900 nM. Regarding `NC(=O)c1cccc2c(NCc3c(F)cccc3C(F)(F)F)nc(NCc3nnn[nH]3)nc12`, the half-inhibitory concentration (IC50) in data set [1] turned out to be 8000 nM. Still for that read-out and setting: under `NC(=O)c1cccc2c(NCc3c(F)cccc3C(F)(F)F)nc(NCc3ccn[nH]3)nc12` stands 2300 nM; under `NC(=O)c1cccc2c1NC(N1Cc3[nH][nH]c(=O)c3C1)=NC2NCc1c(F)cccc1C(F)(F)F` (configuration not stated), 1600 nM; under `NC(=O)c1cccc2c(NCc3c(F)cccc3C(F)(F)F)nc(NCc3ccon3)nc12`, 5500 nM.

For `NC(=O)c1cccc2c1NC(N1CCCc3cn[nH]c3C1)=NC2NCc1c(F)cccc1C(F)(F)F` (configuration not stated), the IC50 in [1] was 19000 nM. Consider `Cc1n[nH]c2c1CN(C1=NC(NCc3c(F)cccc3C(F)(F)F)c3cccc(C(N)=O)c3N1)C2` (configuration not stated), for which the half-inhibitory concentration (IC50) in [5] was 12600 nM; in data set [1] it was 42 nM; against Cytochrome P450 3A4 it was 631 nM.

For `NC(=O)c1cccc2c(NCc3c(F)cccc3C(F)(F)F)nc(N3Cc4cn[nH]c4C3)nc12`, the concentration in solution in data set [2] (solubility) came to 6 µg/mL (≈ 12.7 µM). Further, the IC50 in data set [1] stood at 92 nM.

Take `Cn1cc2c(n1)CN(C1Nc3c(C(N)=O)cccc3C(NCc3c(F)cccc3C(F)(F)F)N1)C2` (configuration not stated): the half-maximal inhibitory concentration (IC50) in data set [1] came to 160 nM. In [2], `C[C@@H](O)c1n[nH]c2c1CN(C1=NC(NCc3c(F)cccc3C(F)(F)F)c3cccc(C(N)=O)c3N1)C2` (some centres not stated) displayed a solubility of 11 µg/mL (≈ 21.3 µM). The IC50 in data set [1] was determined as 230 nM.

As to `NC(=O)c1cccc2c1NC(N1Cc3c(N)n[nH]c3C13CCC3)=NC2NCc1c(F)cccc1C(F)(F)F` (configuration not stated), the IC50 in data set [1] is 7.8 nM.

On to `CCc1n[nH]c2c1CN(C1=NC(NCc3c(F)cccc3C(F)(F)F)c3cccc(C(N)=O)c3N1)C2` (configuration not stated), for which, in [1], the IC50 came to 83 nM.
